This is an account of results in EP2929883A1, “Pyrazole derivatives as dihydroorotate dehydrogenase (DHODH) inhibitors” (INSTITUT PASTEUR, priority 2014, dated 2015).

The structures appear in SMILES notation. Values after ≈ are worked out from the molar mass of the structure shown.

Experiment [1] has as its target T1, recombinant human DHODH (Homo sapiens, UniProt Q02127).
T1 construct: N-terminally truncated (first 29 amino acids) human DHODH; made in house; host or cells: E. coli BL21(DE3)/pDIA17
Description: recombinant DHODH enzymatic assay (DCIP reduction). Format: biochemical. The conditions noted are these: 25°C, DCIP reduction at 600 nm.
Description: Enzymatic assay DHODH activity was determined at 25°C following the reduction of DCIP at 600 nm (ε = 18,800 M^-1 cm^-1) on a spectrophotometer. […] The reaction medium used for this contained 50 mM Tris-HCl pH 8.0, 0.1% Triton X-100, 0.1 mM L-DHO, 0.025 mM CoQ1 and 0.06 mM DCIP. The reaction was started by addition of the enzyme.

Experiment [2] concerns measles virus. Description: microbe, parasite or virus in culture. To be noted: Measles morbillivirus; for IC50: HEK-293T, read-out: IC50 on the measles virus.
In experiment [3] the test system is Jurkat cells. Description: inhibition of the proliferation of Jurkat cells (CellTiter-Glo). Format: cell-based. The conditions noted are these: Homo sapiens, 72 h, read-out: IC50, Jurkat cells proliferation. In general terms: ATP-based viability assays read luminescence as a measure of living cells.
Description: As a control, cells were treated with DMSO alone. At t=0 and after 72 hours of culture, the number of living cells was determined using the CellTiter-Glo reagent. The inhibition of cellular proliferation is expressed as a percentage relative to DMSO-treated control wells. Presented results correspond to the mean ± SD of two independent experiments.
Jurkat cells were cultured in at 5.10+4 cells per well in flat-bottom 96-well culture dishes. […] Number of living cells was determined by quantification of adenosine triphosphate (ATP) in culture wells using the CellTiter-Glo Assay (Promega) following manufacturer's recommendations.

T1 sequence (Q02127 29-395): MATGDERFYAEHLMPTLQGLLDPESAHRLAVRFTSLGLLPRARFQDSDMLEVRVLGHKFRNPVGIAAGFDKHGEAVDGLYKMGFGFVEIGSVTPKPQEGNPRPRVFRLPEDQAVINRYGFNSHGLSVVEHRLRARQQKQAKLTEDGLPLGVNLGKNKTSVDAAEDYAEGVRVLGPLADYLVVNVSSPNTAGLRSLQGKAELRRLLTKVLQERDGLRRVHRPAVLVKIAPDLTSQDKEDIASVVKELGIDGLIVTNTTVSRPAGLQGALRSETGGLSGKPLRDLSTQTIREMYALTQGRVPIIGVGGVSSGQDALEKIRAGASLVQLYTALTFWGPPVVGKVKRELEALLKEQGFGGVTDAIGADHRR

`Cc1c(Cc2ccccc2)c(OC(C)C)nn1-c1ccc(C2CC2)cn1` [example 20, 2-(4-benzyl-3-isopropoxy-5-methyl-1H-pyrazol-1-yl)-5-cyclopropylpyridine]: the IC50 worked out at 130 ± 5 nM in experiment [1] and 46 nM in experiment [2]. Also, the MIC50 in experiment [2] (24 h) lay within 0.0005 to 0.05 µM (≈ 0.000174 to 0.0174 µg/mL).
For `CCOc1nn(-c2ncc(CC)cn2)c(C)c1Oc1ccccc1Br` [example 81, 2-(4-(2-bromophenoxy)-3-ethoxy-5-methyl-1H-pyrazol-1-yl)-5-ethylpyrimidine] the same measures were 1150 ± 170 nM, 124 nM and 0.05 to 0.5 µM (≈ 0.0202 to 0.202 µg/mL).
Turning to `Cc1c(Cc2ccccc2F)c(OC(C)C)nn1-c1ncc(C2CC2)cn1` [example 10, 5-cyclopropyl-2-(4-(2-fluorobenzyl)-3-isopropoxy-5-methyl-1H-pyrazol-1-yl)pyrimidine], the IC50 is 13 ± 2 nM in experiment [1] and 1.1 nM in experiment [2]. For the same compound, the MIC50 in experiment [2] (24 h) is 0.0005 to 0.05 µM (≈ 0.000183 to 0.0183 µg/mL).
With `CCc1cnc(-n2nc(OC(C)C)c(Oc3c(F)cccc3F)c2C)nc1` [example 8, 2-(4-(2,6-difluorophenoxy)-3-isopropoxy-5-methyl-1H-pyrazol-1-yl)-5-ethylpyrimidine], the IC50 in experiment [1] amounted to 13 ± 1 nM; in experiment [2] it was 0.66 nM. Also, the MIC50 in experiment [2] (24 h) lay in the range of 0.0005 to 0.05 µM (≈ 0.000187 to 0.0187 µg/mL).
In the case of `C/C(O)=C(\C#N)C(=O)Nc1ccc(C(F)(F)F)cc1` [Teriflunomide, reference compound], in experiment [3], the IC50 was ~60000 nM. Moreover, the MIC50 in experiment [2] was determined as 50 µM (≈ 13.5 µg/mL).
For `c1ccc(-c2ccn(-c3ncc(C4CC4)cn3)n2)cc1` [example 122, 5-cyclopropyl-2-(3-phenyl-1H-pyrazol-1-yl)pyrimidine], the figures for the IC50 in experiment [1] and in experiment [2] were 22800 ± 2800 nM and 3800 nM, respectively. In addition, the MIC50 in experiment [2] (24 h) is 0.5 to 5 µM (≈ 0.131 to 1.31 µg/mL).
For `Cc1c(C(O)c2ccccc2)c(OC(C)C)nn1-c1ncc(C2CC2)cn1` (stereo not drawn) [example 176, (1-(5-cyclopropylpyrimidin-2-yl)-3-isopropoxy-5-methyl-1H-pyrazol-4-yl)(phenyl)methanol] the same measures were 16 ± 3 nM, 1.4 nM and 0.0005 to 0.05 µM (≈ 0.000182 to 0.0182 µg/mL).
`CC(C)Oc1nn(-c2ncc(C3CC3)cn2)c(Cl)c1Oc1ccccc1F` [example 192, 2-(5-chloro-4-(2-fluorophenoxy)-3-isopropoxy-1H-pyrazol-1-yl)-5-cyclopropylpyrimidine] showed an MIC50 in experiment [2] (24 h) of 0.0005 to 0.05 µM (≈ 0.000194 to 0.0194 µg/mL).
The same measure, in the same setting: as for `CCc1cnc(-n2nc(OCCOCc3ccccc3)c(Cc3ccccc3)c2C)nc1` [example 103, 2-(4-benzyl-3-(2-(benzyloxy)ethoxy)-5-methyl-1H-pyrazol-1-yl)-5-ethylpyrimidine], the figure is 0.0005 to 0.05 µM (≈ 0.000214 to 0.0214 µg/mL).
`CC(C)Oc1nn(-c2ncc(C3CC3)cn2)cc1Oc1ccccc1F` [example 67, 5-cyclopropyl-2-(4-(2-fluorophenoxy)-3-isopropoxy-1H-pyrazol-1-yl)pyrimidine]: the IC50 amounted to 48 ± 7 nM in experiment [1] and 15 nM in experiment [2]. In addition, the MIC50 in experiment [2] (24 h) fell in the range of 0.0005 to 0.05 µM (≈ 0.000177 to 0.0177 µg/mL).
In the case of `Cc1c(Oc2c(F)cccc2F)c(OC(C)C)nn1-c1ncc(C2CC2)cc1N(C)C` [example 190, 5-cyclopropyl-2-(4-(2,6-difluorophenoxy)-3-isopropoxy-5-methyl-1H-pyrazol-1-yl)-N,N-dimethylpyridin-3-amine], the MIC50 in experiment [2] (24 h) is 0.0005 to 0.05 µM (≈ 0.000214 to 0.0214 µg/mL).
In the case of `CC(C)Oc1nn(-c2ncc(C3CC3)cn2)cc1S(=O)(=O)c1ccccc1` [example 183, 5-cyclopropyl-2-(3-isopropoxy-4-(phenylsulfonyl)-1H-pyrazol-1-yl)pyrimidine], in experiment [2] (24 h), the MIC50 fell in the range of 0.0005 to 0.05 µM (≈ 0.000192 to 0.0192 µg/mL).
